Measurements reported in the supplement of paper PMC10307832.

Experiments:
Experiment in all cases: relative viability (nuclei count vs DMSO), 5 days (fraction); higher = more cells survive
AZ3146 + Foretinib = compound: CN1CCC(CC1)OC2=CC(=C(C=C2)NC3=NC=C4C(=N3)N(C(=O)N4C)C5CCCC5)OC [AZ3146] + COc1cc2c(Oc3ccc(NC(=O)C4(C(=O)Nc5ccc(F)cc5)CC4)cc3F)ccnc2cc1OCCCN1CCOCC1 [Foretinib] (partner 0.25 µM)
Method in brief: (§1)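 Relative viability equals treated-well nuclei counts divided by vehicle-well nuclei counts. Counts came from 4× images of lung cancer cell lines grown in 1536-well plates for 5 days after pin-tool dosing on the day after seeding. Dosing used one drug alone or a fixed anchor-drug dose plus five library-drug doses (not always all listed) in √10 steps, and values are medians of duplicate plates.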

AZ3146 + Bortezomib = compound: CN1CCC(CC1)OC2=CC(=C(C=C2)NC3=NC=C4C(=N3)N(C(=O)N4C)C5CCCC5)OC [AZ3146] + CC(C)C[C@H](NC(=O)[C@H](Cc1ccccc1)NC(=O)c1cnccn1)B(O)O [Bortezomib] (partner 0.002 µM)
Method in brief: as §1

AZ3146 + OSI-027 = compound: CN1CCC(CC1)OC2=CC(=C(C=C2)NC3=NC=C4C(=N3)N(C(=O)N4C)C5CCCC5)OC [AZ3146] + COc1cccc2cc(-c3nc([C@H]4CC[C@H](C(=O)O)CC4)n4ncnc(N)c34)[nH]c12 [OSI-027] (partner 0.5 µM)
Method in brief: as §1

GSK-J4 + Linsitinib = compound: CCOC(=O)CCNc1cc(N2CCc3ccccc3CC2)nc(-c2ccccn2)n1 [GSK-J4] + C[C@]1(O)C[C@@H](c2nc(-c3ccc4ccc(-c5ccccc5)nc4c3)c3c(N)nccn32)C1 [Linsitinib] (partner 1 µM)
Method in brief: as §1

## UMC-11
AZ3146 + Foretinib; first compound 0.08 µM
  relative viability: 0.959
AZ3146 + Foretinib; first compound 0.253 µM
  relative viability: 1.04
AZ3146 + Foretinib; first compound 0.8 µM
  relative viability: 1.11
AZ3146 + Foretinib; first compound 2.53 µM
  relative viability: 0.813
AZ3146 + Foretinib; first compound 8 µM
  relative viability: 0.261
AZ3146 + Bortezomib; first compound 0.08 µM
  relative viability: 0.814
AZ3146 + Bortezomib; first compound 0.253 µM
  relative viability: 0.661
AZ3146 + Bortezomib; first compound 0.8 µM
  relative viability: 0.598
AZ3146 + Bortezomib; first compound 2.53 µM
  relative viability: 0.675
AZ3146 + Bortezomib; first compound 8 µM
  relative viability: 0.635
AZ3146 + OSI-027; first compound 0.08 µM
  relative viability: 0.462
AZ3146 + OSI-027; first compound 0.253 µM
  relative viability: 0.46
AZ3146 + OSI-027; first compound 0.8 µM
  relative viability: 0.425
AZ3146 + OSI-027; first compound 2.53 µM
  relative viability: 0.475
AZ3146 + OSI-027; first compound 8 µM
  relative viability: 0.314
GSK-J4 + Linsitinib; first compound 0.5 µM
  relative viability: 0.97
GSK-J4 + Linsitinib; first compound 1.581 µM
  relative viability: 0.967
GSK-J4 + Linsitinib; first compound 5 µM
  relative viability: 1.02
GSK-J4 + Linsitinib; first compound 15.81 µM
  relative viability: 0.983
GSK-J4 + Linsitinib; first compound 50 µM
  relative viability: 0.572
